The values that follow come from US8445503B2, “Inhibitors of polo-like kinase” (Elan Pharmaceuticals, Inc., priority 2009, dated 2013).

Each structure is given as a SMILES string. pIC50: −log10 of the molar value. Some results are limits rather than exact numbers.

Common to all, as to assay type: biochemical
The target in one test is GST-PLK1 (Homo sapiens, UniProt P53350). The test is described as follows: PLK TR-FRET peptide assay, PLK1. To be noted: read-out: Plk1 IC50. On the technique in general: In TR-FRET formats the signal depends on donor and acceptor labels being close together.
GST-PLK1, sequence (P53350 whole entry): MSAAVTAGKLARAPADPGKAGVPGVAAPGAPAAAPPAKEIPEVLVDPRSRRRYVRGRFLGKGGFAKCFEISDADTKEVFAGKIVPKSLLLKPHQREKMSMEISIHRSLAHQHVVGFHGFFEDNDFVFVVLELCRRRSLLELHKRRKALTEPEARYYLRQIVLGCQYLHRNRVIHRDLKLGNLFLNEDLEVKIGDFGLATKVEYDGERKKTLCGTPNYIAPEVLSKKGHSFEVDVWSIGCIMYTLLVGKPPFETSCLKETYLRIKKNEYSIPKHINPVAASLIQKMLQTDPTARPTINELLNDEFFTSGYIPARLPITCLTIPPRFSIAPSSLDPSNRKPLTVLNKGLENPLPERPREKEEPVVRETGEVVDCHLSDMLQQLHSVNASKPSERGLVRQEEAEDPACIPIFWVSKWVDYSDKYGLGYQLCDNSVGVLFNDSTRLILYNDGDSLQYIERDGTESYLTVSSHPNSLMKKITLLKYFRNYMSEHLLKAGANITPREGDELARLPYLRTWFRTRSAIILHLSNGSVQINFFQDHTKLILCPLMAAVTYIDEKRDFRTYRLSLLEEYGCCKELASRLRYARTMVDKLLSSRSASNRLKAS
The next test addresses T1, GST-PLK2 (Homo sapiens, UniProt Q9NYY3).
T1 construct: purchased CarnaBio
The test is described as follows: PLK TR-FRET peptide assay, PLK2. The settings on record: for pIC50: PLK TR-FRET peptide assay, GST-PLK2, read-out: Plk2 IC50.

The target of another test is T2, GST-PLK3 (Homo sapiens, UniProt Q9H4B4).
T2 construct: purchased CarnaBio
T2 sequence (Q9H4B4 whole entry): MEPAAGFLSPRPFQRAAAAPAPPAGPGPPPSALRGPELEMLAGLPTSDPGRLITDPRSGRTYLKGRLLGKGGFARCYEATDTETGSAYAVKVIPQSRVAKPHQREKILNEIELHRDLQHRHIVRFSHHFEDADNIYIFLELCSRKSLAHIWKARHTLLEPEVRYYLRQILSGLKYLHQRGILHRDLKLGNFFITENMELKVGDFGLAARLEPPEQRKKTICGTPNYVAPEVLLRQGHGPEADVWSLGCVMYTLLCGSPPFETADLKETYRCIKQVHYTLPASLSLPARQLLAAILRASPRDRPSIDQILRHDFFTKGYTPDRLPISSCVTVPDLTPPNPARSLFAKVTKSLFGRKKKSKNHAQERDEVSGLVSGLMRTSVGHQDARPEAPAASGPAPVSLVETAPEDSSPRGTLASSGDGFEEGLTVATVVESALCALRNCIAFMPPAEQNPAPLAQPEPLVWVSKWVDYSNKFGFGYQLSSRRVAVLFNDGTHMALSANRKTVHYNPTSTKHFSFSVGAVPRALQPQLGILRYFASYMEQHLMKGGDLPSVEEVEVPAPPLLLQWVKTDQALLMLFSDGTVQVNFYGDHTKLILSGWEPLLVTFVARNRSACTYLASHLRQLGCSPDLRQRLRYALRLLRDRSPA
The test is described as follows: PLK TR-FRET peptide assay, PLK3. The settings on record: PLK TR-FRET peptide assay, GST-PLK3; read-out: Plk3 IC50.

T1 sequence (Q9NYY3 whole entry): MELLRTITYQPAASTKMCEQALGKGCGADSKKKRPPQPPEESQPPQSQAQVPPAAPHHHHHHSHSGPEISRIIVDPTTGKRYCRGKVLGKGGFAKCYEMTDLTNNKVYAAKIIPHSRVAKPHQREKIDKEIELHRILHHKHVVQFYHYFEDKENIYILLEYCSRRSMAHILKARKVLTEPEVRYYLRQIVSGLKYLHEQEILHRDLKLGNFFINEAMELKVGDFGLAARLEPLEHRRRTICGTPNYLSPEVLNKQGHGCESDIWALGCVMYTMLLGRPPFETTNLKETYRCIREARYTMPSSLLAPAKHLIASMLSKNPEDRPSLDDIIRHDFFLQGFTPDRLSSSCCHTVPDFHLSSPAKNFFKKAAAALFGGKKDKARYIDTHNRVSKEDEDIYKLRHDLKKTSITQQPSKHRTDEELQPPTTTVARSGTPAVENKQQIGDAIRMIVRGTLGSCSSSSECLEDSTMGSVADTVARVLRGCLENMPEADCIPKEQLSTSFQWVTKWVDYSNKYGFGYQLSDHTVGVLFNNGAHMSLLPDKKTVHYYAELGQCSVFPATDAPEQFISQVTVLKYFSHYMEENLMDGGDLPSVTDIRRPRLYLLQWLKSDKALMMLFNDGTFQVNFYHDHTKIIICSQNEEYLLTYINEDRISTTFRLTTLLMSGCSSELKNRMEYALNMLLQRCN

One may read the pIC50 as the IC50 on a negative log10 scale, so that one unit is a factor of ten. Consider `CC[C@@H]1C(=O)N(C)c2cnc(-n3ccnc3-c3nccs3)nc2N1C1CCOC1` (stereo partly drawn) [Example 221, (7R)-7-ethyl-5-methyl-8-(tetrahydrofuran-3-yl)-2-(2-(thiazol-2-yl)-1H-imidazol-1-yl)-7,8-dihydropteridin-6(5H)-one], for which the pIC50 on GST-PLK1 was 5.00 to 6.00; on GST-PLK2 it was over 6.00; at GST-PLK3 it was 4.30 to 5.00.
As to `CC[C@@H]1C(=O)N(C)c2cnc(-c3n[nH]cc3-c3ccccc3)nc2N1C1CCCC1` [Example 245, (R)-8-cyclopentyl-7-ethyl-5-methyl-2-(4-phenyl-1H-pyrazol-3-yl)-7,8-dihydropteridin-6(5H)-one], the pIC50 on GST-PLK1 was over 6.00; at GST-PLK2, over 6.00; on GST-PLK3 it was 5.00 to 6.00.
On to `CCC1C(=O)Nc2cnc(-n3ccnc3-c3ccccc3)nc2N1NC(=O)OC(C)(C)C` (stereo not shown) [Example 274, tert-Butyl 7-ethyl-6-oxo-2-(2-phenyl-1H-imidazol-1-yl)-6,7-dihydropteridin-8(5H)-ylcarbamate], for which the pIC50 on GST-PLK1, on GST-PLK2 and on GST-PLK3 was under 4.30 each time.
As to `CCC1C(=O)N(C)c2cnc(-n3ccnc3-c3ccccc3)nc2N1NC(=O)OC(C)(C)C` (stereo not shown) [Example 275, tert-butyl 7-ethyl-5-methyl-6-oxo-2-(2-phenyl-1H-imidazol-1-yl)-6,7-dihydropteridin-8(5H)-ylcarbamate], the pIC50 is under 4.30 at GST-PLK1, 4.30 to 5.00 on GST-PLK2 and under 4.30 on GST-PLK3.
On to `CCC1C(=O)N(C)c2cnc(-n3ccnc3-c3ccccc3)nc2N1N` (stereo not shown) [Example 278, 8-amino-7-ethyl-5-methyl-2-(2-phenyl-1H-imidazol-1-yl)-7,8-dihydropteridin-6(5H)-one], for which the pIC50 was 4.30 to 5.00 on GST-PLK1, over 6.00 at GST-PLK2 and 4.30 to 5.00 on GST-PLK3.
For `CCC1C(=O)N(C)c2cnc(-n3ccnc3-c3ccccc3)nc2N1N1CCCC1` (stereo not shown) [Example 280, 7-ethyl-5-methyl-2-(2-phenyl-1H-imidazol-1-yl)-8-(pyrrolidin-1-yl)-7,8-dihydropteridin-6(5H)-one], the pIC50 is over 6.00 at GST-PLK1, over 6.00 at GST-PLK2 and 4.30 to 5.00 on GST-PLK3.
As to `CCC1C(=O)N(C)c2cnc(-n3ccnc3-c3ccc(F)cc3)nc2N1c1ccccc1` (stereo not shown) [Example 291, 7-ethyl-2-(2-(4-fluorophenyl)-1H-imidazol-1-yl)-5-methyl-8-phenyl-7,8-dihydropteridin-6(5H)-one], the results for the pIC50 at GST-PLK1, on GST-PLK2 and at GST-PLK3 were 5.00 to 6.00, over 6.00 and 5.00 to 6.00, respectively.
As for `CC[C@@H]1C(=O)N(C)c2cnc(-c3cnsc3-c3ccc(F)cc3)nc2N1C(C)C` [Example 296, (R)-7-ethyl-2-(5-(4-fluorophenyl)isothiazol-4-yl)-8-isopropyl-5-methyl-7,8-dihydropteridin-6(5H)-one], the results for the pIC50 at GST-PLK1, on GST-PLK2 and at GST-PLK3 were over 6.00, over 6.00 and 5.00 to 6.00, respectively.
Turning to `CC[C@@H]1C(=O)N(C)c2cnc(-c3cn[nH]c3-c3ccccn3)nc2N1C1CCCC1` [Example 306, (R)-8-cyclopentyl-7-ethyl-5-methyl-2-(5-(pyridin-2-yl)-1H-pyrazol-4-yl)-7,8-dihydropteridin-6(5H)-one], the pIC50 on GST-PLK1, on GST-PLK2 and at GST-PLK3 was over 6.00 in each case.
As for `CN1C(=O)C23CCC(CC2)N3c2nc(-n3ccnc3-c3ccccc3)ncc21` [Example 308, 5-methyl-2-(2-phenyl-1H-imidazol-1-yl)-8,9-dihydro-7H-6a,9-ethanopyrrolo[2,1-h]pteridin-6(5H)-one], the pIC50 at GST-PLK1 is 4.30 to 5.00; at GST-PLK2, 5.00 to 6.00; at GST-PLK3, under 4.30.
With `CC[C@@H]1CC[C@@]2(CC)C(=O)N(C)c3cnc(-n4ccnc4-c4ccccc4)nc3N12` [Example 309, (6aS,9R)-6a,9-diethyl-5-methyl-2-(2-phenyl-1H-imidazol-1-yl)-6a,7,8,9-tetrahydropyrrolo[2,1-h]pteridin-6(5H)-one], the pIC50 on GST-PLK1, at GST-PLK2 and on GST-PLK3 was over 6.00 each time.
Turning to `CC[C@@H]1C(=O)N(C)c2cnc(-c3sc(N)nc3-c3ccc(F)cc3)nc2N1C(C)C` [Example 318, (R)-2-(2-amino-4-(4-fluorophenyl)thiazol-5-yl)-7-ethyl-8-isopropyl-5-methyl-7,8-dihydropteridin-6(5H)-one], the pIC50 at GST-PLK1, on GST-PLK2 and on GST-PLK3 was over 6.00 each time.
In the case of `CC[C@@H]1C(=O)N(C)c2cnc(-c3scnc3-c3ccc(F)cc3)nc2N1C(C)C` [Example 319, (R)-7-ethyl-2-(4-(4-fluorophenyl)thiazol-5-yl)-8-isopropyl-5-methyl-7,8-dihydropteridin-6(5H)-one], the pIC50 on GST-PLK1 is 5.00 to 6.00; at GST-PLK2 it was over 6.00; on GST-PLK3, 5.00 to 6.00.
Regarding `CN1C(=O)C23C=CC(CC2)N3c2nc(-n3ccnc3-c3ccccc3)ncc21` (stereo not shown) [Example 326, 5-methyl-2-(2-phenyl-1H-imidazol-1-yl)-9H-6a,9-ethanopyrrolo[2,1-h]pteridin-6(5H)-one], the figures for the negative logarithm of the IC50 (pIC50) on GST-PLK1, at GST-PLK2 and at GST-PLK3 were under 4.30, 5.00 to 6.00 and under 4.30, respectively.
Turning to `CC[C@@H]1C(=O)N(C)c2cnc(-n3ncnc3-c3ccn[nH]3)nc2N1C(C)C` [Example 327, (R)-2-(5-(1H-pyrazol-5-yl)-1H-1,2,4-triazol-1-yl)-7-ethyl-8-isopropyl-5-methyl-7,8-dihydropteridin-6(5H)-one], the negative-log IC50 (pIC50) was over 6.00 on GST-PLK1, over 6.00 on GST-PLK2 and 5.00 to 6.00 on GST-PLK3.
For the compound `CC[C@@H]1C(=O)N(C)c2cnc(-n3ccnc3-c3ccc(F)cc3)nc2N1C1COC1` [Example 328, (R)-7-ethyl-2-(2-(4-fluorophenyl)-1H-imidazol-1-yl)-5-methyl-8-(oxetan-3-yl)-7,8-dihydropteridin-6(5H)-one], the pIC50 at GST-PLK1 was under 4.30; at GST-PLK2, 5.00 to 6.00; at GST-PLK3, under 4.30.
For the compound `CCC1C(=O)N(C)c2cnc(-n3ccnc3-c3ccc(F)cc3)nc2N1c1cnn(COCC[Si](C)(C)C)c1` (stereo not shown) [Example 342, 7-ethyl-2-(2-(4-fluorophenyl)-1H-imidazol-1-yl)-5-methyl-8-(1-((2-(trimethylsilyl)ethoxy)methyl)-1H-pyrazol-4-yl)-7,8-dihydropteridin-6(5H)-one], the values for the pIC50 at GST-PLK1, on GST-PLK2 and at GST-PLK3 were 4.30 to 5.00, over 6.00 and 5.00 to 6.00, respectively.
As to `CCC1C(=O)N(C)c2cnc(-n3ccnc3)nc2N1c1cn[nH]c1` (stereo not shown) [Example 343, 7-ethyl-2-(1H-imidazol-1-yl)-5-methyl-8-(1H-pyrazol-4-yl)-7,8-dihydropteridin-6(5H)-one], the values for the pIC50 at GST-PLK1, on GST-PLK2 and at GST-PLK3 were under 4.30, 5.00 to 6.00 and under 4.30, respectively.
Regarding `CC[C@@]12COCCN1c1nc(-c3cn[nH]c3-c3nccs3)ncc1N(C)C2=O` [Example 344, (S)-6a-ethyl-5-methyl-2-(5-(thiazol-2-yl)-1H-pyrazol-4-yl)-6a,7,9,10-tetrahydro-[1,4]oxazino[3,4-h]pteridin-6(5H)-one], the pIC50 is under 4.30 on GST-PLK1, over 6.00 on GST-PLK2 and 4.30 to 5.00 at GST-PLK3. Also, the “PLK2 activity relative to the opposite enantiomer / other isomer” value at GST-PLK2 (comparison of resolved enantiomers, used to assign absolute configuration) is given as “more active compound”.
